Test [1] has as its system Cyclic AMP phosphodiesterase. The following applies: known activity, Chem. Pharm. Bull, 1981, 29, 3586-92; cited from earlier work.
For test [2] the following is noted: known activity, Chem. Pharm. Bull, 1986, 34, 3514-17; cited from earlier work.
Test [3] in a line: In vitro free radical (DPPH) scavenging antioxidant potency. It counts as biochemical. The following applies: for 50% Radical scavenging concentration: DPPH radical, tris-HCl buffer pH 7.4, 45 minutes in dark, absorbency at 517 nm, triplicate. The procedure:
Antioxidant activity of the compounds was tested for its capacity/potency to scavenge most widely used free radical, 1,1-diphenyl-2-picryl hyrazyl radical (DPPH). […] 200 μl of test compounds were reconstituted to 1 ml in tris-HCl buffer (pH 7.4). […] After incubation for 45 minutes in dark, the absorbency at 517 nm was recorded. Percent radical scavenging activity was calculated accordingly. All the readings were taken in triplicate.
On the technique in general: Loss of DPPH colour is used to gauge radical scavenging.

SMILES strings stand for the structures.

Consider `COc1cc([C@H]2c3cc(O)c(OC)cc3C[C@@](O)(CO)[C@@H]2CO)ccc1O` [(+)-Cycloolivil], for which, in test [1], the “Cyclic AMP phosphodiesterase inhibition” value was “inhibition”. Further, the “Ca^2+ antagonist activity” value in test [2] is on record as “Ca^2+ antagonist activity”. The “50% Radical scavenging concentration” value in test [3] came to 21.74 µg/mL. For the same molecule, the “Antioxidant activity compared with reference drugs Probucol and alpha-tocopherol” value in test [3] (comparison in words) was “better than the above mentioned reference drugs”.
As for `Cc1c(C)c2c(c(C)c1O)CCC(C)(CCCC(C)CCCC(C)CCCC(C)C)O2` (stereo not drawn) [DL α-Tocopherol, reference compound], the “50% Radical scavenging concentration” value in test [3] turned out to be 47.80 µg/mL.

The values above are taken from US6562381B2, “(+)-Cycloolivil as antioxidant obtained from natural source namely stereospermum personatum” (Council of Scientific and Industrial Research, priority 2001, dated 2003).
